Source: patent US7071178B2, “Use of vitamin D-derivatives in the treatment of osteoporosis and related bone disorders, as well as novel vitamin D3-derivatives” (Leo Pharmaceutical Products, Ltd., priority 2000, dated 2006)

How the values were obtained:
[1] = test system: OVX rats; test: OVX rat model on osteoporosis: biomechanical test of bone strength; format: in vivo; design: key to Effect on bone strength, Femor. Meta., vs 1,25D3 / Effect on bone strength, L3, vs 1,25D3 / Effect on bone strength, Femor. Dia., vs 1,25D3: <: less effect than the reference dose of 1,25D3 (0.25 ug/kg); <=: less or the same effect as the reference dose of 1,25D3 (0.25 ug/kg); =: same effect as the reference dose of 1,25D3 (0.25 ug/kg); =>: same or better effect as the reference dose of 1,25D3 (0.25 ug/kg); >: better effect than the reference dose of 1,25D3 (0.25 ug/kg); conditions: oral 28 days
Experimental: FIG. 2 is a graphic illustration of the biomechanical test of the lumbal vertebrae, L3. The vertebral body cylinder were tested along the proximal-distal axis in a materials testing machine (Alwetron TCT 5, Lorentzen and Wettre, Stockholm, Sweden) at a constant deformation rate of 2 mm/min. During compression, load-deformation curves were recorded and stored on a PC (ProLinea 4/33, Compaq, USA). Fmax is the maximum point on the load deforming curve.
The rats were treated according to the OVX rat model described herein, and wherein the animal groups received treatment according to the same scheme as for FIG. 1. A statistical analysis is shown in the graphic illustration, cf. description for FIG. 1.
(§1) Pharmacological Methods—OVX Rat Model on Osteoporosis
(§2) To study bone anabolic properties and the effects of the vitamin D analogues of the present invention in preventing or treating demineralisation of the skeleton in vivo, a 4 weeks OVX rat model was used:
(§3) An ovariectomized rat model (OVX model), orally dosed for 28 days is useful for screening of vitamin D analogues. In this model ovariectomy produces alterations in the cancellous network identical to those seen in the human skeleton during ageing and the menopause. Besides this the model and the following analyses can be performed under very standardised conditions. 1α,25(OH)2D3 is used as a reference compound.
(§4) Female Sprague Dawley rats weighing approximately 130 g (40–45 days old) were purchased from MB, Ejby, Denmark. The animals were fed a commercial diet and allowed free access to food and drinking water. The animals were split into groups receiving differential treatment.
(§5) The animals were anaesthetised and ovariectomized through a dorsal incision.
(§6) Treatment of OVX animals was started 2 weeks after ovariectomy.
(§7) The animals were dosed orally for 28 days. The oral dosage was by gavage 0.1 ml/100 g bodyweight. The bodyweight of each animal was recorded every day prior to oral dosing. On day 7, 14, 21 and 28 the animals were housed separately for 24 hours in metabolic cages for collection of urine. Urine was frozen at −20° C. for later calcium measurement.
Left and right femur, left and right tibia, lumbal vertebrae 3 and 4 (L3 and L4) were removed and cleaned for all soft- and connecting tissue. Left femur, left and right tibia and L4 were dried in an oven at 50–60° C. for at least 24 hours and immediately hereafter weighed. The bones were burned in an oven at 800° C. for 4 hours, dissolved in 1N HCl, and analysed for calcium content in a Hitachi 911 autoanalyser. Right femur and L3 were kept in 0.9% NaCl and frozen at −20° C. for later biomechanical testing performed by Jesper Skovhus Thomsen and Lis Mosekilde at Aarhus University, measuring various biomechanical parameters.
(§8) Effect of Compound 145 compared to the reference dose of 1,25(OH)2D3 (1,25D3) (0.25 μg/kg) and compared to the OVX control group (shown in %) are shown in Tables 1 to 4.

[2] = test system: OVX rats; test: OVX rat model on osteoporosis: serum calcium; format: in vivo; design: key to Effect on serum calcium vs 1,25D3: <: less effect than the reference dose of 1,25D3 (0.25 ug/kg); <=: less or the same effect as the reference dose of 1,25D3 (0.25 ug/kg); =: same effect as the reference dose of 1,25D3 (0.25 ug/kg); =>: same or better effect as the reference dose of 1,25D3 (0.25 ug/kg); >: better effect than the reference dose of 1,25D3 (0.25 ug/kg); conditions: for Effect on serum calcium vs 1,25D3 / Effect on serum calcium vs Ovx contr: oral 28 days
From the text: as §1, §2, §3, §4, §5, §6, §7
At day 28 the animals were anaesthetised and 2 ml of blood was obtained either by heart puncture or from the orbital vein, after this the animals were euthanized by CO2. The serum fraction was then removed and frozen at −20° C. for later measurement of calcium, phosphorous and creatinine.
as §8

Compound: C=C1C(=CC=C2CCCC3(C)C2CCC3C(C)CSc2ccc(C(C)(C)O)cc2)CC(O)CC1O [Compound 145, 1(S),3(R)-Dihydroxy-20(R)-(4-((1-hydroxy-1-methyl)ethyl)phenylthiomethyl)-9,10-seco-pregna-5(Z),7(E),10(19)-triene]
- Effect on bone strength, Femor. Dia., vs 1,25D3 ([1]; 1 μg/kg, MTR/16): <=
- Effect on bone strength, Femor. Meta., vs 1,25D3 ([1]; 1 μg/kg, MTR/16): <
- Effect on bone strength, L3, vs 1,25D3 ([1]; 1 μg/kg, MTR/16): <
- Effect on bone strength, Femor. Dia., vs 1,25D3 ([1]; 10 μg/kg, MTR/16): =
- Effect on bone strength, Femor. Meta., vs 1,25D3 ([1]; 10 μg/kg, MTR/16): =
- Effect on bone strength, L3, vs 1,25D3 ([1]; 10 μg/kg, MTR/16): >
- Effect on bone strength, Femor. Dia., vs 1,25D3 ([1]; 10 μg/kg, MTR/23): <=
- Effect on bone strength, Femor. Dia., vs Ovx contr ([1]; 10 μg/kg, MTR/23): −5%
- Effect on bone strength, Femor. Meta., vs 1,25D3 ([1]; 10 μg/kg, MTR/23): <
- Effect on bone strength, Femor. Meta., vs Ovx contr ([1]; 10 μg/kg, MTR/23): 6%
- Effect on bone strength, L3, vs 1,25D3 ([1]; 10 μg/kg, MTR/23): =
- Effect on bone strength, L3, vs Ovx contr ([1]; 10 μg/kg, MTR/23): 23%
- Effect on bone strength, Femor. Dia., vs 1,25D3 ([1]; 25 μg/kg, MTR/27): >
- Effect on bone strength, Femor. Dia., vs Ovx contr ([1]; 25 μg/kg, MTR/27): 9%
- Effect on bone strength, Femor. Meta., vs 1,25D3 ([1]; 25 μg/kg, MTR/27): >
- Effect on bone strength, Femor. Meta., vs Ovx contr ([1]; 25 μg/kg, MTR/27): 39%
- Effect on bone strength, L3, vs 1,25D3 ([1]; 25 μg/kg, MTR/27): <=
- Effect on bone strength, L3, vs Ovx contr ([1]; 25 μg/kg, MTR/27): 27%
- Effect on bone strength, Femor. Dia., vs 1,25D3 ([1]; 50 μg/kg, MTR/23): =
- Effect on bone strength, Femor. Dia., vs Ovx contr ([1]; 50 μg/kg, MTR/23): −1%
- Effect on bone strength, Femor. Meta., vs 1,25D3 ([1]; 50 μg/kg, MTR/23): >
- Effect on bone strength, Femor. Meta., vs Ovx contr ([1]; 50 μg/kg, MTR/23): 43%
- Effect on bone strength, L3, vs 1,25D3 ([1]; 50 μg/kg, MTR/23): >
- Effect on bone strength, L3, vs Ovx contr ([1]; 50 μg/kg, MTR/23): 45%
- Effect on bone strength, Femor. Dia., vs 1,25D3 ([1]; 50 μg/kg, MTR/27): >
- Effect on bone strength, Femor. Dia., vs Ovx contr ([1]; 50 μg/kg, MTR/27): 5%
- Effect on bone strength, Femor. Meta., vs 1,25D3 ([1]; 50 μg/kg, MTR/27): >
- Effect on bone strength, Femor. Meta., vs Ovx contr ([1]; 50 μg/kg, MTR/27): 31%
- Effect on bone strength, L3, vs 1,25D3 ([1]; 50 μg/kg, MTR/27): <
- Effect on bone strength, L3, vs Ovx contr ([1]; 50 μg/kg, MTR/27): 22%
- Effect on bone strength, Femor. Dia., vs 1,25D3 ([1]; 75 μg/kg, MTR/27): >
- Effect on bone strength, Femor. Dia., vs Ovx contr ([1]; 75 μg/kg, MTR/27): 4%
- Effect on bone strength, Femor. Meta., vs 1,25D3 ([1]; 75 μg/kg, MTR/27): >>
- Effect on bone strength, Femor. Meta., vs Ovx contr ([1]; 75 μg/kg, MTR/27): 50%
- Effect on bone strength, L3, vs 1,25D3 ([1]; 75 μg/kg, MTR/27): =
- Effect on bone strength, L3, vs Ovx contr ([1]; 75 μg/kg, MTR/27): 38%
- Effect on bone strength, Femor. Dia., vs 1,25D3 ([1]; 100 μg/kg, MTR/23): =
- Effect on bone strength, Femor. Dia., vs Ovx contr ([1]; 100 μg/kg, MTR/23): −3%
- Effect on bone strength, Femor. Meta., vs 1,25D3 ([1]; 100 μg/kg, MTR/23): =
- Effect on bone strength, Femor. Meta., vs Ovx contr ([1]; 100 μg/kg, MTR/23): 21%
- Effect on bone strength, L3, vs 1,25D3 ([1]; 100 μg/kg, MTR/23): >
- Effect on bone strength, L3, vs Ovx contr ([1]; 100 μg/kg, MTR/23): 37%
- Effect on serum calcium vs 1,25D3 ([2]; 1 μg/kg, MTR/16): No
- Effect on serum calcium vs Ovx contr ([2]; 1 μg/kg, MTR/16): 0%
- Effect on serum calcium vs 1,25D3 ([2]; 10 μg/kg, MTR/16): No
- Effect on serum calcium vs Ovx contr ([2]; 10 μg/kg, MTR/16): 3%
- Effect on serum calcium vs 1,25D3 ([2]; 10 μg/kg, MTR/23): <
- Effect on serum calcium vs Ovx contr ([2]; 10 μg/kg, MTR/23): 6%
- Effect on serum calcium vs 1,25D3 ([2]; 25 μg/kg, MTR/27): <
- Effect on serum calcium vs Ovx contr ([2]; 25 μg/kg, MTR/27): 11%
- Effect on serum calcium vs 1,25D3 ([2]; 50 μg/kg, MTR/23): No
- Effect on serum calcium vs Ovx contr ([2]; 50 μg/kg, MTR/23): 2%
- Effect on serum calcium vs 1,25D3 ([2]; 50 μg/kg, MTR/27): =
- Effect on serum calcium vs Ovx contr ([2]; 50 μg/kg, MTR/27): 18%
- Effect on serum calcium vs 1,25D3 ([2]; 75 μg/kg, MTR/27): =
- Effect on serum calcium vs Ovx contr ([2]; 75 μg/kg, MTR/27): 20%
- Effect on serum calcium vs 1,25D3 ([2]; 100 μg/kg, MTR/23): No
- Effect on serum calcium vs Ovx contr ([2]; 100 μg/kg, MTR/23): −5%
- calcaemic effect (adverse effect) compared to 1,25D3 ([2]; summary of Tables 1 to 4): reduced
